Test results as given in US9783528B2, “Inhibitors of the enzyme UDP-glucose: N-acyl-sphingosine glucosyltransferase” (Concert Pharmaceuticals, Inc., priority 2013, dated 2017).
Like-named read-outs stand apart in the source and are kept apart here.

Tests used:
CYP2D6 = molecular target: T1, CYP2D6 (Homo sapiens, UniProt P10635); test: Metabolic stability in Human CYP2D6 Supersomes; assay type: in vitro ADME; details: human, recombinant human CYP2D6 Supersomes
T1 construct: purchased Corning Gentest
T1 sequence (P10635 whole entry): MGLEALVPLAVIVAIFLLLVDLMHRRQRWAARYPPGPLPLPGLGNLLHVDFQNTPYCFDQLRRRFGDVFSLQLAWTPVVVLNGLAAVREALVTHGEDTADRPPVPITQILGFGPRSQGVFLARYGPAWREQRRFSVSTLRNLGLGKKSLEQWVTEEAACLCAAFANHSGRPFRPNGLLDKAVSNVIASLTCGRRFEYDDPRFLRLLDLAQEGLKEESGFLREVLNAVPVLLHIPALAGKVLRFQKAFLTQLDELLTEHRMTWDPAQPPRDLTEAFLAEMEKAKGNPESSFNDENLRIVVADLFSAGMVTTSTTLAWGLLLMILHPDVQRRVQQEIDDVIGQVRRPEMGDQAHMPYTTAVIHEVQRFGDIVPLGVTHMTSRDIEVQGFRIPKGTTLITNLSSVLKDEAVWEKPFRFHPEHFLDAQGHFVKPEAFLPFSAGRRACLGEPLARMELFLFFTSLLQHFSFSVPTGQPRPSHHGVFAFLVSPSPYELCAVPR
Method: (§1) Evaluation of Metabolic Stability in Human CYP2D6 Supersomes™
(§2) Materials: CYP2D6 Supersomes™ were obtained from Corning Gentest. β-nicotinamide adenine dinucleotide phosphate, reduced form (NADPH), magnesium chloride (MgCl2), and dimethyl sulfoxide (DMSO) were purchased from Sigma-Aldrich. D-Eliglustat compounds were supplied by Concert Pharmaceuticals.
(§3) Determination of Metabolic Stability: 10 mM stock solutions of test compounds were prepared in DMSO. […] The CYP2D6 supersomes were diluted to 5 pmol/mL in 0.1 M potassium phosphate buffer, pH 7.4, containing 3 mM MgCl2. The diluted supersomes were added to wells of a 96-well deep-well polypropylene plate in triplicate. […] Reactions were initiated by addition of pre-warmed NADPH solution. The final reaction volume was 0.5 mL and contained 5 pmol/mL CYP2D6 supersomes, 0.25 μM test compound, and 2 mM NADPH in 0.1 M potassium phosphate buffer, pH 7.4, and 3 mM MgCl2. The reaction mixtures were incubated at 37° C. and 50 μL aliquots were removed at 0, 5, 10, 20, and 30 minutes and added to shallow-well 96-well plates which contained 50 μL of ice-cold ACN with internal standard to stop the reactions. The plates were stored at 4° C. for 20 minutes after which 100 μL of water was added to the wells of the plate before centrifugation to pellet precipitated proteins. Supernatants were transferred to another 96-well plate and analyzed for amounts of parent remaining by LC-MS/MS using an Applied Bio-systems mass spectrometer.
(§4) Data analysis: The in vitro t1/2s for test compounds were calculated from the slopes of the linear regression of % parent remaining (ln) vs incubation time relationship.
(§5) k=−[slope of linear regression of % parent remaining (ln) vs incubation time]
(§6) Data analysis was performed using Microsoft Excel Software.

Human CYP2D6 Supersomes = molecular target: T2, Human CYP2D6 Supersomes (Homo sapiens, UniProt P10635); test: Metabolic stability in Human CYP2D6 Supersomes; assay type: in vitro ADME; details: Table 4a; for t1/2 (minutes) Experiment 2 / t1/2 (minutes) Experiment 1: 5 pmol/mL CYP2D6 supersomes, 0.25 μM test compound, 2 mM NADPH, 37° C.; for t1/2 (minutes) Experiment 1: parent remaining by LC-MS/MS; for t1/2 (minutes) Ave ± SD: average of Experiments 1 and 2
T2 construct: purchased Corning Gentest
T2 sequence (P10635 whole entry): as above
Method: as §1, §2, §3, §4, §5, §6

Molecule: CCCCCCCC(=O)N[C@H](CN1CCCC1)[C@H](O)c1ccc2c(c1)OCCO2 [Eliglustat (D0), N-[2-(2,3-dihydro-1,4-benzodioxin-6-yl)-2(R)-hydroxy-1(R)-(pyrrolidin-1-ylmethyl)ethyl]octanamide, reference compound]
- half-life at 0.25 μM (CYP2D6; pH 7.4, Table 4a, 5 pmol/mL CYP2D6 supersomes, 0.25 μM test compound, 2 mM NADPH, 37° C., parent remaining by LC-MS/MS, read-out: t1/2 (minutes) Experiment 1): 6.6 min
- half-life at 0.25 μM (CYP2D6; pH 7.4, Table 4a, 5 pmol/mL CYP2D6 supersomes, 0.25 μM test compound, 2 mM NADPH, 37° C., read-out: t1/2 (minutes) Experiment 2): 5.1 min
- half-life at 0.25 μM (CYP2D6; pH 7.4, Table 4a, average of Experiments 1 and 2, read-out: t1/2 (minutes) Ave ± SD): 6.7 ± 1.5 min
- half-life at 0.25 μM (CYP2D6; pH 7.4, Table 4b, Human CYP2D6 Supersomes, read-out: t1/2 (minutes) Experiment 1): 9.7 min
- half-life at 0.25 μM (CYP2D6; pH 7.4, Table 4b, Human CYP2D6 Supersomes, read-out: t1/2 (minutes) Experiment 2): 6.3 min
- half-life at 0.25 μM (CYP2D6; pH 7.4, Table 4b, average of Experiments 1 and 2, read-out: t1/2 (minutes) Ave ± SD): 8 ± 2.4 min

Molecule: N-((1R,2R)-1-(2,3-Dihydrobenzo[b][1,4]dioxin-6-yl-2,2,3,3-d4)-1-hydroxy-3-(pyrrolidin-1-yl-d8)propan-2-yl)octanamide hemi-L-tartaric acid salt [Compound 118]
- t1/2 (minutes) Experiment 2 (Human CYP2D6 Supersomes): 5.9 min
- t1/2 (minutes) Experiment 1 (Human CYP2D6 Supersomes): 5.6 min
- t1/2 (minutes) Ave ± SD (Human CYP2D6 Supersomes): 5.8 ± 0.2 min

Molecule: N-((1R,2R)-1-(2,3-dihydrobenzo[b][1,4]dioxin-6-yl)-1-hydroxy-3-(pyrrolidin-2-yl-3,3-d2)octan-d15-amide hemi-L-tartaric acid salt [Compound 171]
- t1/2 (minutes) Experiment 2 (Human CYP2D6 Supersomes): 17.1 min
- t1/2 (minutes) Experiment 1 (Human CYP2D6 Supersomes): 12.3 min
- t1/2 (minutes) Ave ± SD (Human CYP2D6 Supersomes): 14.7 ± 3.4 min
- % Δ of t1/2 = [(deuterated species) − (nondeuterated species)](100)/(nondeuterated species) (Human CYP2D6 Supersomes; versus Eliglustat (D0)): 119%
